In patent US20250059162A1, “MULTI-PROTEIN DEGRADATION AGENT HAVING IMIDE SKELETON” (SUZHOU KINTOR PHARMACEUTICALS, INC., priority 2021, published 2025):

Columns and labels:
Assay type in all cases: cell-based
HL60 cells = experiment: Anti-proliferation on HL60 cells (CellTiter-Glo, 3 days); settings: Homo sapiens, HL-60, 72 h, 3 days incubation, CTG luminescence, IC50 by XLfit, read-out: HL60 cells Proliferation inhibitory activity
How it was run: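 Log-phase cells were plated at 20000 cells/well and treated with compound dilutions in RPMI-1640 for 3 days, with 0.1% DMSO controls. Proliferation was read by CellTiter-Glo luminescence. IC50 was fitted from the inhibition rates.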

c-Myc protein = biological target: T1, c-Myc protein (Homo sapiens, UniProt P01106); experiment: c-Myc protein degradation in HL60 cells (Western blot); settings: for remaining activity at 0.01 µM: HL-60, compound at 10 nM, 24 h, gray value relative to Ctrl (DMSO), read-out: Remaining amount of c-Myc protein (@10 nM/Ctrl)
T1 construct: degradation of myc and GSPT1 proteins in HL60 cells; endogenous in cells; host or cells: HL60
T1 sequence (P01106 whole entry): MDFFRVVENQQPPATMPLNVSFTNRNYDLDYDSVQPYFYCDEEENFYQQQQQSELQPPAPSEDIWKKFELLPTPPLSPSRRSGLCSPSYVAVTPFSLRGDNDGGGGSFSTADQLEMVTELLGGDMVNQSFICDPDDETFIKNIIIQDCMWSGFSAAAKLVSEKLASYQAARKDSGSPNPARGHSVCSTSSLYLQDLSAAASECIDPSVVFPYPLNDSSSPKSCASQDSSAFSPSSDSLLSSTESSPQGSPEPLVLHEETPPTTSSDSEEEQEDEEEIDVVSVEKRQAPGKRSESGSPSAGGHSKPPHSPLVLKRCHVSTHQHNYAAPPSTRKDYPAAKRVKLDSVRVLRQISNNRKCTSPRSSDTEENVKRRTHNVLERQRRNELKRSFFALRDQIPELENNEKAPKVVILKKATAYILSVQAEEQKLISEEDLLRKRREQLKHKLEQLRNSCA
How it was run: (§1)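 HL60 cells (1×10^6 per well, RPMI-1640) treated with compound for 24 h, DMSO as control. Lysates normalised by BCA, equal protein run on SDS-PAGE and Western blotted with GAPDH loading control, ECL detection. Band gray values by densitometry taken as remaining protein.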

GSPT1 protein = biological target: T2, GSPT1 protein (Homo sapiens, UniProt P15170); experiment: GSPT1 protein degradation in HL60 cells (Western blot); settings: for Degradation of GSPT1 protein in HL60 cells (FIG. 1, in words): FIG. 1, concentration not stated; for remaining GSPT1 protein at 0.01 µM: HL-60, compound at 10 nM, 24 h, gray value relative to Ctrl (DMSO), read-out: Remaining amount of GSPT1 protein (@10 nM/Ctrl)
T2 construct: degradation of myc and GSPT1 proteins in HL60 cells; endogenous in cells; host or cells: HL60
T2 sequence (P15170 whole entry): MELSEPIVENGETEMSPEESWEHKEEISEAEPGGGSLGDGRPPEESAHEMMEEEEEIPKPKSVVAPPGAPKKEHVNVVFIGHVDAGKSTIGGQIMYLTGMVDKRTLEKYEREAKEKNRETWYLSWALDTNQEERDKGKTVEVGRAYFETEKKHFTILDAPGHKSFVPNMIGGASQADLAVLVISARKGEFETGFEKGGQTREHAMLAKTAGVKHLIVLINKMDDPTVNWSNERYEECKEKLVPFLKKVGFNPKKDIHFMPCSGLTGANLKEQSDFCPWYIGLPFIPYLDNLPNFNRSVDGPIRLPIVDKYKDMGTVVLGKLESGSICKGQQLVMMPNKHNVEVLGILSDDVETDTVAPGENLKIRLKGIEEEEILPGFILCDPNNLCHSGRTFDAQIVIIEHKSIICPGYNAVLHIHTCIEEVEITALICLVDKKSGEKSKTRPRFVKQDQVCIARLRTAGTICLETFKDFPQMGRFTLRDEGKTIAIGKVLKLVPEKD
How it was run: as §1

CK1α protein = biological target: T3, CK1α protein (Homo sapiens, UniProt P48729); experiment: CK1α protein degradation (Western blot); settings: compound at 10 nM, 24 h, gray value relative to Ctrl (DMSO)
T3 construct: endogenous in cells; host or cells: HL60
T3 sequence (P48729 whole entry): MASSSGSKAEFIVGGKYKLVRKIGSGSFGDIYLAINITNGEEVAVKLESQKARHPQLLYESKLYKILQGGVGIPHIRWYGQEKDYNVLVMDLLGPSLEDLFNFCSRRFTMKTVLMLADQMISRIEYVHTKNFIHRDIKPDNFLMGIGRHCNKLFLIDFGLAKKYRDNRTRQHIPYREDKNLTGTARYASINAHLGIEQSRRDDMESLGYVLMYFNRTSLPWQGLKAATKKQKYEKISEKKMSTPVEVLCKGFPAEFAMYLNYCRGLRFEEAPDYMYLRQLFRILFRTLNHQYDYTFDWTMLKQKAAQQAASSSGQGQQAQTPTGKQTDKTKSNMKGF
Procedure: (§2) HL60 cells in the exponential growth phase were digested and plated into a 6-well plate at 1×10^6 cells per well. The cell culture medium was RPMI-1640 (meilunbio, MA0215). After a day of adherent growth of the cells, the compound of the present invention was added as a test drug for culture, and proteins were extracted 24 h later (Ctrl meant adding only DMSO at the same volume).
(§3) In the 6-well plate, the culture medium RPMI-1640 (meilunbio, MA0215) was removed, and the cells were washed once with PBS, digested with trypsin, and centrifuged and collected separately into 1.5 mL centrifuge tubes. 100 μL of RIPA lysis buffer (containing 100 μM PMSF) was added to each tube, mixed thoroughly, allowed to stand on ice for 30 min and then centrifuged at 12000 rpm at 4° C. using a centrifuge for 20 min. The supernatant was used for Western blotting experiments. The sample can be stored at −80° C.
(§4) By using the BCA protein concentration determination kit (from Thermo Fisher, Cat. No. 23225), the BSA standard determination solution and the samples to be tested (the samples to be tested can be diluted and then tested) were prepared according to the table A below. Samples were added to the 96-well plate. Each well was supplemented with PBS to 20 μL, and then 200 μL of BCA working solution (prepared according to the kit) was added respectively and mixed evenly. The plate was placed at 60° C. for 10 min, and then the absorbance at 562 nm was detected. After the reading was recorded, a standard curve was plotted using concentration gradients of the standards, and the absorbance of the samples was substituted to calculate the protein concentration of the samples.
(§5) • 2.1 Protein denaturation: RIPA protein buffer (purchased from Solarbio, Cat. No. R0010) and 5× Loading Buffer (SDS, glycerin, bromophenol blue, TRIS) (purchased from Solarbio, Cat. No. P1040) were added, and the protein samples were denatured at 100° C. for 5 min. • 2.2 Sample loading and electrophoresis: 10% precast gel and the corresponding electrophoresis buffer were used. […]

IKZF2 protein = biological target: T4, IKZF2 protein (Homo sapiens, UniProt Q9UKS7); experiment: IKZF2 protein degradation (Western blot); settings: compound at 10 nM, 24 h, gray value relative to Ctrl (DMSO)
T4 construct: endogenous in cells; host or cells: HL60
T4 sequence (Q9UKS7 whole entry): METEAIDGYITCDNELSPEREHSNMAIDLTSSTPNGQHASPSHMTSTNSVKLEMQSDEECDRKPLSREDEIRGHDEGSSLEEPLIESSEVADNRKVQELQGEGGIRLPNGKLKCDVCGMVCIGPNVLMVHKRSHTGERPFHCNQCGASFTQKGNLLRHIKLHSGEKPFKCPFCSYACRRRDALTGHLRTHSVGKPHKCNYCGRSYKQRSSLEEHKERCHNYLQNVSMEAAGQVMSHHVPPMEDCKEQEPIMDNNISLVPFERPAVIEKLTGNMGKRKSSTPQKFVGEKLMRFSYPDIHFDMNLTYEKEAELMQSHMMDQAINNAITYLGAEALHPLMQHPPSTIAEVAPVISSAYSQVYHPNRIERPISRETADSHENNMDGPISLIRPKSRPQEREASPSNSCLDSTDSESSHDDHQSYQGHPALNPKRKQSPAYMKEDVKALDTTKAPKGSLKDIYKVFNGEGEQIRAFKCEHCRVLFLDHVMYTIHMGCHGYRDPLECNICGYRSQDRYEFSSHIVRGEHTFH
Procedure: as §2, §3, §4, §5

SMILES: O=C1CCC(N2Cc3cc(CNCC4CCN(c5ncc(-c6cccc7ccccc67)cn5)CC4)ccc3C2=O)C(=O)N1 (centres unmarked) [Compound A62]
- IC50 (HL60 cells): 2 nM
- remaining activity at 0.01 µM (c-Myc protein): 17%
- Degradation of GSPT1 protein in HL60 cells (FIG. 1, in words) (GSPT1 protein): significantly degrade GSPT1 protein
- remaining GSPT1 protein at 0.01 µM (GSPT1 protein): 16%
- Remaining amount of CK1α protein (@10 nM/Ctrl) (CK1α protein): 27%
- Remaining amount of IKZF2 protein (@10 nM/Ctrl) (IKZF2 protein): 45%

SMILES: O=C1CCC(N2Cc3cc(CNCC4CCN(c5ncc(-c6cccc(Cl)c6)cc5C(F)(F)F)CC4)ccc3C2=O)C(=O)N1 (centres unmarked) [Compound A80]
- IC50 (HL60 cells): < 0.2 nM
- Degradation of c-Myc protein in HL60 cells at 10 nM (FIG. 1, in words) (c-Myc protein; 10 nM): completely degrade both GSPT1 and c-Myc
- remaining activity at 0.01 µM (c-Myc protein): 0%
- Degradation of GSPT1 protein in HL60 cells at 10 nM (FIG. 1, in words) (GSPT1 protein; 10 nM): completely degrade both GSPT1 and c-Myc
- Degradation of GSPT1 protein in HL60 cells (FIG. 1, in words) (GSPT1 protein): significantly degrade GSPT1 protein
- remaining GSPT1 protein at 0.01 µM (GSPT1 protein): 3%
- Remaining amount of CK1α protein (@10 nM/Ctrl) (CK1α protein): 5%
- Remaining amount of IKZF2 protein (@10 nM/Ctrl) (IKZF2 protein): 17%
